{
  "source": "patent US10336732B2",
  "about": "“1-heterocyclyl isochromanyl compounds and analogs for treating CNS disorders” (Sunovion Pharmaceuticals Inc., priority 2015, dated 2019)",
  "data": [
    {"system": "mice", "assay": "Neuropharmacological assay (SmartCube), behavioral signature of compound-treated mice", "format": "in vivo", "settings": "i.p. 15 min before behavioral test, most efficacious dose(s) of 3 doses", "how_it_was_run": "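Read-out is an automated video-based behavioral signature, scored as per-class probabilities (e.g., anxiolytic, antidepressant) against reference compounds. Dosing was i.p. at three doses, 15 min pre-test, in NMP, polyethylene glycol and propylene glycol. Values shown are from the most efficacious dose(s).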", "values": [
      {"smiles": "Fc1ccc2c(c1)CCO[C@H]2[C@H]1CCCN1", "note": "[Compound I-12, (R)-2-((R)-6-fluoroisochroman-1-yl)pyrrolidine]", "AD: ADHD (probability that behavioral signature matches class)": "+ (LOQ ≤ + <5%)", "AG: analgesic (probability that behavioral signature matches class)": "++ (5% ≤ ++ <25%)", "AX: anxiolytic (probability that behavioral signature matches class)": "++ (5% ≤ ++ <25%)", "CE: cognitive enhancer (probability that behavioral signature matches class)": "+ (LOQ ≤ + <5%)", "DP: anti-depressant (probability that behavioral signature matches class)": "++ (5% ≤ ++ <25%)", "HA: hallucinogen (probability that behavioral signature matches class)": "+ (LOQ ≤ + <5%)", "MS: mood stabilizer (probability that behavioral signature matches class)": "+ (LOQ ≤ + <5%)", "PS: anti-psychotic (probability that behavioral signature matches class)": "++ (5% ≤ ++ <25%)", "SD: sedative hypnotic (probability that behavioral signature matches class)": "+ (LOQ ≤ + <5%)", "UN: uncharacterized CNS activity (probability that behavioral signature matches class)": "++++ (50% ≤ ++++)", "XG: anxiogenic (probability that behavioral signature matches class)": "+ (LOQ ≤ + <5%)"},
      {"smiles": "Fc1cccc2c1CCO[C@H]2[C@@H]1CCN1", "note": "[Compound I-93, (S)-2-((R)-5-fluoroisochroman-1-yl)azetidine]", "AD: ADHD (probability that behavioral signature matches class)": "++ (5% ≤ ++ <25%)", "AG: analgesic (probability that behavioral signature matches class)": "+++ (25% ≤ +++ <50%)", "AX: anxiolytic (probability that behavioral signature matches class)": "++ (5% ≤ ++ <25%)", "CE: cognitive enhancer (probability that behavioral signature matches class)": "++ (5% ≤ ++ <25%)", "DP: anti-depressant (probability that behavioral signature matches class)": "+++ (25% ≤ +++ <50%)", "HA: hallucinogen (probability that behavioral signature matches class)": "+ (LOQ ≤ + <5%)", "MS: mood stabilizer (probability that behavioral signature matches class)": "+ (LOQ ≤ + <5%)", "PS: anti-psychotic (probability that behavioral signature matches class)": "++ (5% ≤ ++ <25%)", "SD: sedative hypnotic (probability that behavioral signature matches class)": "++ (5% ≤ ++ <25%)", "UN: uncharacterized CNS activity (probability that behavioral signature matches class)": "++ (5% ≤ ++ <25%)", "XG: anxiogenic (probability that behavioral signature matches class)": "+ (LOQ ≤ + <5%)"},
      {"smiles": "N#Cc1ccc2c(c1)CCO[C@@H]2[C@@H]1CCCN1", "note": "[Compound I-43, (S)-1-((S)-pyrrolidin-2-yl)isochroman-6-carbonitrile]", "AD: ADHD (probability that behavioral signature matches class)": "+ (LOQ ≤ + <5%)", "AG: analgesic (probability that behavioral signature matches class)": "++ (5% ≤ ++ <25%)", "AX: anxiolytic (probability that behavioral signature matches class)": "+++ (25% ≤ +++ <50%)", "CE: cognitive enhancer (probability that behavioral signature matches class)": "++ (5% ≤ ++ <25%)", "DP: anti-depressant (probability that behavioral signature matches class)": "++ (5% ≤ ++ <25%)", "HA: hallucinogen (probability that behavioral signature matches class)": "+ (LOQ ≤ + <5%)", "MS: mood stabilizer (probability that behavioral signature matches class)": "+ (LOQ ≤ + <5%)", "PS: anti-psychotic (probability that behavioral signature matches class)": "++ (5% ≤ ++ <25%)", "SD: sedative hypnotic (probability that behavioral signature matches class)": "+ (LOQ ≤ + <5%)", "UN: uncharacterized CNS activity (probability that behavioral signature matches class)": "+ (LOQ ≤ + <5%)", "XG: anxiogenic (probability that behavioral signature matches class)": "+ (LOQ ≤ + <5%)"}
    ]}
  ]
}
